{"source": "patent US5272138A", "about": "“Naturally occurring gangliosides containing de-N-acetyl-sialic acid and their applications as modifiers of cell physiology” (The Biomembrane Institute, priority 1990, dated 1993)", "origin": "cited, not measured here", "conditions": "compared with lysolecithin, Taketomi and Kawamura 1970"}
{"smiles": "CCCCCCCCCCCCCC=CC(O)C(N)COC1OC(CO)C(OC2OC(CO)C(O)C(OC3(C(=O)O)CC(O)C(N)C(C(O)C(O)CO)O3)C2O)C(O)C1O", "note": "(stereo not shown)", "values": [{"measurement": "hemolytic activity", "result": "twice that of lysolecithin"}]}
